Key:
ICR(CD-1) mice = test: Reversal of Phencyclidine (PCP)-Induced Hyperlocomotor Activity in Mice; assay type: in vivo, mouse; details: i.p.
Excerpt: This assay for Reversal of Phencyclidine (PCP)-Induced Hyperlocomotor Activity in Mice is run substantially as the Reversal of Phencyclidine (PCP)-Induced Hyperlocomotor Activity in Rats assay provided above, using mice instead of rats and with the changes noted below.
Motor activity is monitored by placing individual male, ICR(CD-1), (Harlan, Indianapolis, Ind.) mice in transparent, plastic shoe-box cages of the dimensions 45×25×20 cm, with 0.5 cm depth of wood chips as bedding, and plastic lid on top of the cage. Motor monitors (Kinder Scientific) consist of a rectangular rack of 12 photobeams arranged in an 8×4 formation, (or a high density grouping of 22 in a 15×7 pattern) at a height of 2.5 cm. The shoe box cage is placed inside of these racks, with the racks on a 3 foot high tabletop in an isolated room. A compound of the present invention is dosed (intraperitoneal route, non-prodrug) usually within a range of 0.3-30 mg/kg; though higher doses may be used, 30 minutes prior to a 7.5 mg/kg challenge dose of phencyclidine (PCP). On the test day, mice are placed in the test cage and allowed to acclimate for 45 minutes prior to PCP challenge; mice are monitored for an additional 60 minutes following PCP administration.
Power analyses have determined that 7-8 mice per group are needed to have appropriate statistical power for detecting treatment differences (power=0.8).

hPepT1 = biological target: T1, hPepT1 (Homo sapiens, UniProt P46059); test: In Vitro PepT1 GlySar Inhibition Screen and IC50 Determination; assay type: cell-based
T1 construct: expressed in transfected cells; host or cells: HeLa cells (ATCC), transient transfection with FuGene6
T1 sequence (P46059 1-708): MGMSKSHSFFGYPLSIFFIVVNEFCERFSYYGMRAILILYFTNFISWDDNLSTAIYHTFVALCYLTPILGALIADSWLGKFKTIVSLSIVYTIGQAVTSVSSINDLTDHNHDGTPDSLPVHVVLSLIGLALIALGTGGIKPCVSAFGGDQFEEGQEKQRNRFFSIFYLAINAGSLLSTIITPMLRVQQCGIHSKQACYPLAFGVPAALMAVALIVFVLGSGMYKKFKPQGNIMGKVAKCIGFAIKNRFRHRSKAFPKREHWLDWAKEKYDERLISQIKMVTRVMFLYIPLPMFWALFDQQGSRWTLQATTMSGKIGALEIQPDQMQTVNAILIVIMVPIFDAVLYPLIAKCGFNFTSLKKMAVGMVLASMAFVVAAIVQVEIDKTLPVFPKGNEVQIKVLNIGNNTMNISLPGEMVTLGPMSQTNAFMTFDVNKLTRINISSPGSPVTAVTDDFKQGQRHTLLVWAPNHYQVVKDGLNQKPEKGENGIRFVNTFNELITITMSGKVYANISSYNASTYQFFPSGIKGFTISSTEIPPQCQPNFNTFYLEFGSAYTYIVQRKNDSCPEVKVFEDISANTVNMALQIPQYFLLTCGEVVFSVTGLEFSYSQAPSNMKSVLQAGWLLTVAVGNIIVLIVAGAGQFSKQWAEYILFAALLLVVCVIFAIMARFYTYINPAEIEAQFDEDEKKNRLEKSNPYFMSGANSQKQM
Method: PepT1 assays are established to examine the ability of the amino acid prodrug compounds to interact with the intestinal absorption transporter PepT1.
HeLa cells, […], (American Type Culture Collection) are grown in Hyclone Medium (Invitrogen, Cat# SH30243) containing 10% fetal bovine serum (FBS), 0.1 mM non essential amino acids (NEAA), and 100 units/mL penicillin with 100 μg/mL streptomycin at 37° C. in a 5% CO2 humidified atmosphere. The cell line is used for up to 40 passages and then discarded. Frozen cells in 1 ml vials are thawed in water bath for 1-2 minutes and added to 5 mL of cell medium at 37° C. Each of the T-flasks is provided with 8.5 mL of the fresh medium and 1.5 mL of the cell stock. Cells are passaged twice during a week. This is achieved by rinsing the flasks with 10 mL of phosphate buffered saline-ethylene diaminetetra acetic acid (PBS-EDTA), adding 2 mL of trypsin for 2-5 minutes, to detach the cells, and adding 8 mL of fresh medium to inhibit further activity of trypsin. Each new flask receives a combination of 8.5 mL of fresh medium and 1.5 mL of cell stock, in order to obtain 1:6 cell dilution. Cells are incubated at 37° C., until ready for the uptake study.
Cells that are 70-80% confluent in the T-flasks are plated 1 day prior to the transfection procedure. The flask with the cell stock is treated with PBS-EDTA and trypsin to detach the cells, and transfection medium is used from this point. Transfection medium consists of Dulbecco's Modified Eagle Medium (DMEM)+NEAA. To each well, 0.5 mL of the cell mixture is added (1.3×10^5 is the desired cell concentration) and the cells are incubated at 37° C. overnight. Twenty four hours before the assay, cells are transfected with PEPT1. Transfection mixture is prepared by mixing 600 μL of serum free transfection medium, 18 μL of FuGene6 (Roche Diagnostics), and 11 μg of the PepT1 DNA. The transfection reagent-DNA complex is incubated for 20 minutes and 24 μL of the reagent-DNA complex is added to each well.
J. Pharm. Exper Ther. 310:437-445). […] Uptake media consists of 140 mM NaCl, 5.4 mM KCl, 1.8 mM CaCl2, 0.8 mM MgSO4, 5 mM Glucose, 25 mM tris(hydroxymethyl)aminomethane buffer (TRIS). The solution is then brought to pH 6.0 using 2-(N-morpholino)ethanesulfonic acid. The incubation volume is 500 μL and is performed at room temperature for 3 minutes. To stop the uptake at the conclusion of the incubation time, the uptake media is aspirated off of the cell monolayer and 500 μL of ice cold PBS added to the well. The cells are washed 3 times with 500 μL of room temperature PBS without Ca^+2 and Mg^+2. The cells are then lysed with 300 μL of 1% Triton X100 H2O solution. […] A no inhibitor control is established and the percent inhibition of each prodrug is calculated with respect to this control.
The incubation and sampling procedures are exactly the same as the PepT1 screen described above. […]

SMILES | inhibition of PCP evoked ambulations (ICR(CD-1) mice; multiple dose experiment, 10 mg/kg dose) | inhibition of PCP evoked ambulations (ICR(CD-1) mice; single dose experiment of 10 mg/kg) | inhibition at 5000 µM (hPepT1; 5 mM, pH 6.0, PepT1 transiently transfected HeLa cells, read-out: hPepT1 [3H]Gly-Sar uptake inhibition at 5 mM) | IC50 (hPepT1; 0.0625 to 25 mM, PepT1 transfected HeLa cells, read-out: hPepT1 [3H]Gly-Sar uptake inhibition IC50)
N[C@@]1(C(=O)O)C[C@@H](Sc2nnc[nH]2)[C@H]2[C@H](C(=O)O)[C@H]21 [Example 1, (1R,2S,4R,5R,6R)-2-Amino-4-(4H-1,2,4-triazol-3-ylsulfanyl)bicyclo[3.1.0]hexane-2,6-dicarboxylic acid] | 81±5% | 78±9% | – | –
C[C@H](N)C(=O)N[C@@]1(C(=O)O)C[C@@H](Sc2nnc[nH]2)[C@H]2[C@H](C(=O)O)[C@H]21.Cl [Example 2, (1R,2S,4R,5R,6R)-2-[[(2S)-2-Aminopropanoyl]amino]-4-(1H-1,2,4-triazol-3-ylsulfanyl)bicyclo[3.1.0]hexane-2,6-dicarboxylic acid hydrochloride] | – | – | 38% | 1.84 mM

Source: US8318184B2, “MGLU2 agonists” (Eli Lilly and Company, priority 2009, dated 2012)
